Laboratory results reported in ChEMBL document CHEMBL5346924, “Optically activated MEK1/2 inhibitors (Opti-MEKi) as potential antimelanoma agents” (Eur J Med Chem, 2023).
Active and inactive are the calls of the source. The rule behind the calls is not given here.

What was measured:
HCT-116 = assay: Antiproliferative activity against human HCT-116 cells harboring KRAS G13D mutant assessed as cell growth inhibition incubated for 72 hrs in the absence of UV irradiation by CellTiter-Glo luminescent assay; type: functional; conditions: HCT-116, light or radiation study
A-375 [1] = assay: Antiproliferative activity against CM-Dil labelled human A-375 cells xenografted in Zebra fish AB at 45 pM administered from 3 days post fertilization and measured at day 5 post fertilization in the absence of irradiation by fluorescence based analysis; type: functional, cell-based; conditions: time 48.0 hrs
[2] = Cytotoxicity against HEK293T cells assessed as cell growth inhibition incubated for 72 hrs by CellTiter-Glo luminescent assay; type: toxicity, cell-based, HEK-293T; conditions: human
A-375 [3] = assay: Inhibition of MEK/ERK/RSK signaling in human A-375 cells assessed as inhibition of RSK phosphorylation at 5 nM in the presence of 365 nm light irradiation for 30 sec to 5 min by Western blot analysis; type: cell-based
A-375 [4] = assay: Inhibition of colony formation in human A-375 cells preincubated with compound for 1 hrs followed by 365 nm light irradiation for 5 mins and measured for 10 days by crystal violet staining based analysis; type: functional, cell-based; conditions: dose 10-300 nM, time 14465.0 min
CYP1A2 = biological target: T1, CYP1A2 (Homo sapiens, UniProt P05177); assay: Inhibition of CYP1A2 in human microsomes at 10 uM in the presence of NADPH relative to control; type: ADME, Microsome
T1 sequence (P05177 whole entry): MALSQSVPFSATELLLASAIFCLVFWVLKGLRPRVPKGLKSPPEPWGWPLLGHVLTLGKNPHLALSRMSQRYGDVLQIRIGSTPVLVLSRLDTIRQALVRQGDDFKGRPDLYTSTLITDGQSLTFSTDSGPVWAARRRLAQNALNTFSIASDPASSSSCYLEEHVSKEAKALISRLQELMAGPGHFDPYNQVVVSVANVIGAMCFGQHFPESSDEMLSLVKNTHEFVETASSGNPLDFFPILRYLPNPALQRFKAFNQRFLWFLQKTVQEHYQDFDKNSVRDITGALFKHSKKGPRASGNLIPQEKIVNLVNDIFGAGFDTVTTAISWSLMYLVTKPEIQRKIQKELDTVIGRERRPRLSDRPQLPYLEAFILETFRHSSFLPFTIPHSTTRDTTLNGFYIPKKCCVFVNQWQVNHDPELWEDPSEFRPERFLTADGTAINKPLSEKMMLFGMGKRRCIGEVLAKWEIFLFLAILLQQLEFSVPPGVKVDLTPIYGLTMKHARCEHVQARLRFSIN

GI50 (HCT-116): > 10 µM
inhibition at 10 µM (CYP1A2): 0%
SMILES: COc1cc(C(C)O/C(=N\OC[C@H](O)CO)c2ccc(F)c(F)c2Nc2ccc(I)cc2F)c([N+](=O)[O-])cc1OC (stereo partly specified)
Activity (A-375 [1]): inactive
GI50 at 72 h [2]: > 10 µM
inhibition (A-375 [3]): Active
inhibition (A-375 [4]): Active
